From patent publication US12011433B2 (UNIVERSITÁ DEGLI STUDI DI BARI “ALDO MORO”, priority 2016, dated 2024)
Like-named read-outs stand apart in the source and are kept apart here.

Assays:
PGE2 = PGE2 release in LPS-stimulated BV2 microglial cells, competitive binding immunoassay; format: cell-based; details: for PGE2 release (ng/ml) at 48 h: LPS-stimulated BV2 cells; for PGE2 production reduction: LPS-treated BV2 cells
Method: Microglial cells were cultured in 6-well plates at a density of 3×10^6 cells/well. […] The cultures were maintained at 37° C. for 24 and 48 h in a humidified air containing a 5% CO2. PGE2 levels were determined in the supernatant using a competitive binding immunoassay (Cayman Chemical, Ann Arbor, MI, USA) following the manufacturer's instructions. Unstimulated cells were included as a control. PGE2 amount determination in the brain was performed in the tissue extracts, according to the manufacturer's instructions. The optical density was measured at λ=405-420 nm with precision microplate reader and the amount of PGE2 (ng/mL) was calculated using a PGE2 standard curve.

COX-1 = COX-1 (Mus musculus (Mouse), UniProt P22437); test: COX-1 expression in LPS-treated BV2 microglial cells, western blotting; format: cell-based; details: for COX-1 expression reduction: LPS-activated BV2 cells
Method: (§1) Cells were then incubated for different times at 37° C. with LPS, as pro-inflammatory stimulus. Experiments included cells grown in medium alone (control).
(§2) The tissue and cell culture lysates were vortexed for 15-20 s and, then, centrifuged at 12,800×g for 20 min. The protein concentration in the supernatant was spectrophotometrically determined by Bradford's protein assay (Bradford, 1976). Protein samples were diluted with sample buffer (0.5 M Tris-HCl pH=6.8, 10% glycerol, 10% (w/v) SDS, 5% 2-mercaptoethanol, 0.05% (w/v) bromophenol blue) and then boiled for 3 min. Proteins (25 μg/lane) and prestained standards (BioRad Laboratories, Hercules, CA, USA) were loaded on 7% or 12% SDS precast polyacrylamide gels (BioRad Laboratories).
After electrophoresis, the resolved proteins were transferred from the gel to nitrocellulose membranes. A blotting buffer [20 mMTris/150 mM glycine, pH=8.0, 20% (v/v) methanol] was used for gel and membrane saturation and blotting. Then, membranes were incubated in the dark with 1 μg/mL mouse monoclonal antibody (MoAb) anti-COX-1 and rabbit polyclonal Ab anti-COX-2 (1:1000) (both from AbCam, Cambridge, UK), rabbit polyclonal Ab anti p-IkB-α (1:200), mouse polyclonal Ab anti β-actin (1:500) (all from Santa Cruz Biotechnology), mouse MoAb anti-glial fibrillary acidic protein (GFAP) (1:200) and mouse mAb anti-ionized calcium-binding adapter molecule-1 (Iba-1) (1:200) (both from Merck Millipore) overnight at 4° C. The membranes were washed with 0.1% Tween 20-PBS (for 20 min, 3 times) and then incubated with the secondary antibody diluted 1:2000 for 60 min. Bands were visualized by chemiluminescence detection (Invitrogen, Milan, Italy). The β-actin level was used as a protein loading control. For tissue analysis, obtained bands were normalized to the level of β-actin performed for each cerebral area tested. For cell cultures the bands were normalized to the β-actin level in each experimental condition.

BV2 microglial cells = test: BV2 microglial cell viability, MTT reduction assay; format: cell-based; details: 24 h, P6 0.5 and 1 μM, mofezolac 0.1 and 0.5 μM, alone or with LPS
Method: as §1
Cell viability of microglial cells was quantified using the MTT reduction assay. The cells (8×10^3/well) were grown in 96-well plates (Becton Dickinson Labware) in complete medium and treated with different concentration of COX inhibitors, in presence or absence of LPS. Untreated cells were used as a control. A PBS 1× solution of MTT (5 mg/mL) was prepared and added to the cell medium at a final concentration of 0.5 mg/mL. Cells were incubated for 4 h at 37° C. and 5% CO2 to allow the MTT metabolism. The formazan crystals formed (from MTT) into the cells were solubilized with DMSO (Sigma-Aldrich). The levels of MTT formazan were determined measuring the optical density at λ=560 nm and subtracting the background (λ=670 nm) with a Victor Multiplate Reader (Wallac). Optical density was directly correlated to cell quantity.

COX-2 [1] = molecular target: COX-2 (Mus musculus (Mouse), UniProt Q05769); test: COX-2 expression in LPS-treated BV2 microglial cells, western blotting; format: cell-based; details: LPS-stimulated BV2 cells
Method: as §1, §2
After electrophoresis, the resolved proteins were transferred from the gel to nitrocellulose membranes. A blotting buffer [20 mMTris/150 mM glycine, pH=8.0, 20% (v/v) methanol] was used for gel and membrane saturation and blotting. […]

COX-2 [2] = molecular target: COX-2 (Homo sapiens, UniProt P35354); test: colorimetric COX Inhibitor screening Assay (peroxidase component, oxidized TMPD at 590 nm); format: biochemical
Sequence of COX-2 (Homo sapiens, UniProt P35354) (P35354 18-604 limits assumed): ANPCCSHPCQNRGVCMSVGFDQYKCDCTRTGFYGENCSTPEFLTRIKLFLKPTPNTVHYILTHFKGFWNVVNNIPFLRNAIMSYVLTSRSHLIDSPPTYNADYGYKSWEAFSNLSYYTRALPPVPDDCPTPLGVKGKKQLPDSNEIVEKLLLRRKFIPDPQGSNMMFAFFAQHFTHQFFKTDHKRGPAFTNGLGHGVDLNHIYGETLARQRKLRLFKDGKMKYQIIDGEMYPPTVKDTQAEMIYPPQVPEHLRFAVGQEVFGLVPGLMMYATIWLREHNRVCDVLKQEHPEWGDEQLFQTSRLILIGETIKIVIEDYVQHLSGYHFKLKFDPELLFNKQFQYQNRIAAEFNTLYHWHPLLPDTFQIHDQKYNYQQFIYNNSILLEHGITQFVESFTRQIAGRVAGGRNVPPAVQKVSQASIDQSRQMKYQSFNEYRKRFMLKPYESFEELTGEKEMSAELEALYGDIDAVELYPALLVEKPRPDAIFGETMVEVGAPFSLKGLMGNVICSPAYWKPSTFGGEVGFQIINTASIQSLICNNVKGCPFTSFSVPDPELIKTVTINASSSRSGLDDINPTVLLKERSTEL
Method: Human cyclooxygenase inhibitory activity was determined by a colorimetric COX Inhibitor screening Assay which measures the peroxidase component of the cyclooxygenases, monitoring the appearance of oxidized N,N,N′,N′-tetramethyl-p-phenylenediamine (TMPD) at 590 nm.

[3] = GALMOF0 metabolic stability, incubation with rat liver microsomes; format: in vitro ADME
Method: GALMOF0 metabolic stability was determined through its incubation with rat liver microsomes and monitoring the disappearance of its chromatogram peak within 30 min.
The in vitro test was carried out in the presence of rat liver S9 fraction (Tebu-bio, Milan, Italy).
Briefly, GALMOF0 (10 μM) in 100 mM of phosphate buffer (pH=7.4) was mixed with the NADPH regeneration system to a final concentration of 1.3 mM NADP^+, 3.3 mM glucose 6-phosphate and 0.4 U/ml glucose 6-phosphate dihydrogenase and 3.3 mM MgCl2. The experiment started with the addition of rat microsomes (1 mg/ml) that were incubated for 30 min at 37° C. The reaction was blocked by adding an equal volume of cold CH3CN. The samples were centrifuged at 4,600 rpm for 15 min at 4° C. The supernatant was separated and the organic phase analysed by HPLC in the same conditions used for the samples of the “chemical stability study”.
The residual GALMOF0 percentage after 30 min was calculated according the following equation: Residual GALMOF0(%) at 30 min=Cmicr+NADPH/Cmicr×100 where Cmicr+NADPH is the GALMOF0 concentration after the incubation with the microsomes and the NADPH regeneration system (FIG. 8); Cmicr is the GALMOF0 concentration after the incubation with only the microsomes (FIG. 9).

[4] = GALMOF0 chemical stability in buffers by HPLC; format: physicochemical; details: pH 1, 3, 7.3 and 8, 37° C., till 60 min
Method: HPLC analyses were performed to determine the chemical stability and the purity grade of GALMOF0 as a representative compound of the set.
Aminica column was used, CH3CN/10 mM Tris-HCl (pH=8) (15:85) was used as mobile phase, T=40° C.; λ=254 nm.
200 μL of 2.5 mg/mL di GALMOF0 in CH3CN were added to 1800 μL of a buffer (pH=1, 3, 7.3 and 8). Each sample was kept stirred at 37° C. Buffer with pH=1 and 3, obtained with 0.1N HCl and 50 mM HEPES, was selected to simulate the chemical stability at gastric level, whereas pH=7.3 and 8, obtained by 50 mM TRIS-HCl, simulated its stability in the blood and gut, respectively.
At 15, 30, 60 min and 48 h, 300 μL of the sample were withdraw, diluted with 300 μL of CH3CN (final concentration=[…]) and tested by HPLC.

Caco-2 cells = test: Caco-2 monolayer efflux assay, Apparent Permeability (Papp), with or without GLUT-1 inhibitor phloretin; format: in vitro ADME, Human
Method: (§3) In a monolayer efflux assay, the Apparent Permeability (Papp) in both basolateral to apical [Papp(B→A)] and apical to basolateral [Papp(A→B)] directions was determined for each compound (FIG. 2). Human colonic adenocarcinoma cell line (Caco-2) presents a facilitated transport system at the apical and basolateral surface. Caco-2 cells express high levels of GLUT-1 that are localized to the basolateral membrane and transport glucose to the serosal side.
(§4) The Papp(B→A) flux of each compound alone or in the presence of phloretin, a GLUT-1 inhibitor, has been determined. Since GLUT-1 is express in the basolateral compartment a high B→A flux means that the transport is GLUT-1 mediated because B→A flux represents the active transport.
(§5) A→B flux, which represents the passive transport, has also been determined for each compound (Table 2).

GLUT-1 = test: as above; format: in vitro ADME, Human; details: human
Method: as §3, §4, §5

Cc1onc(-c2ccc(Cl)o2)c1-c1ccccc1 [Compound P6, 3-(5-chlorofuran-2-yl)-5-methyl-4-phenylisoxazole]
PGE2 release (ng/ml) at 48 h (PGE2; 0.5 μM inhibitor + LPS): 0.21 ng/mL | PGE2 release (ng/ml) at 48 h (PGE2; 1 μM inhibitor + LPS): 0.12 ng/mL | PGE2 production reduction (PGE2; at 0.5 μM as printed in the text): 78% | PGE2 production reduction (PGE2; at 1 μM as printed in the text): 88% | COX-1 expression levels (COX-1; BV2 cells, 48 h of incubation with LPS, 1 h pre-treated): significantly reduced | COX-1 expression reduction (COX-1; 0.5 μM): 67% | COX-1 expression reduction (COX-1; 1.0 μM): 79% | cell toxicity (BV2 microglial cells): No cell toxicity | COX-2 protein levels (COX-2 [1]): unaffected

COc1ccc(-c2noc(CC(=O)OCC3OC(O)C(O)C(O)C3O)c2-c2ccc(OC)cc2)cc1 [GALMOF0, ((2S,3R,4S,6R)-3,4,5,6-tetrahydroxytetrahydro-2H-pyrano-2-yl-) methyl-(2-(3,4-di(4-metoxyphenyl)isoxazol-5-yl)acetate]
inhibition at 50 µM (COX-2 [2]; at 50 μM, the highest concentration tested): 87% | IC50 (COX-2 [2]; human cyclooxygenase): 3.1 µM | Cmicr, concentration after the incubation ([3]; incubated with only the microsomes, 30 min): 70.51 mAU*s | Cmicr+NADPH, concentration after the incubation ([3]; incubated with the microsomes and the NADPH regeneration system, 30 min): 68.02 mAU*s | residual GALMOF0 after 30 min of treatment with microsomes ([3]; rat liver microsomes 1 mg/ml, NADPH regeneration system, 10 μM, 37° C.): 96% | chemical stability, chromatogram profile [4]: no variation of the chromatogram profile was observed | Papp B → A, Phloretin (Caco-2 cells; in the presence of 100 mM Phloretin): 610 nm/s | reduction of the basolateral to apical flux (Papp B→A) in the presence of phloretin (Caco-2 cells; phloretin vs alone): 30% | Papp A→B (GLUT-1; compound alone, read-out: Papp A → B): 38 ×10⁻⁶ cm/s | Papp B→A (GLUT-1; compound alone, read-out: Papp B → A): 87.5 ×10⁻⁶ cm/s | Papp A→B (GLUT-1; with phloretin (GLUT-1 inhibitor), in Phloretin, read-out: Papp A → B, Phloretin): 36.8 ×10⁻⁶ cm/s | Papp B→A (GLUT-1; with phloretin (GLUT-1 inhibitor), in Phloretin, read-out: Papp B → A, Phloretin): 61 ×10⁻⁶ cm/s
